The text below walks through data of article PMC7179994 (Thrombosis and haemostasis, 2019).

The subject of assay [1] is transendothelial migration of leukocytes. As to conditions: fibrinogen; cited from earlier work.
For assay [2], the system named is leukocyte (neutrophil) infiltration into the peritoneum, wild-type C57BL/6J mice. In words: Mouse model of peritonitis, leukocyte infiltration, wild-type mice. To be noted: 0.8 μM i.v. in 200 μL PBS, without (β15–44)2, 4 hours, n = 7. It is filed as in vivo.

For the compound fibrinogen, the “Transendothelial migration of leukocytes” value in assay [1] is on record as “promotes transendothelial migration of leukocytes”.
As for `CN1CCN(CCOc2cc(OC3CCOCC3)c3c(Nc4c(Cl)ccc5c4OCO5)ncnc3c2)CC1` [Saracatinib], the “Infiltration of leukocytes, Fyn inhibitor alone” value in assay [2] was “no effect on infiltration of leukocytes”.
